Assay results published in US20100215618A1, “NOVEL COMPOUNDS - 644” (Arrow Therapeutics Limited, priority 2009, published 2010).
Where two headings read alike, the source gives them in different places.

Columns and labels:
[1] = system: HCV replicon cells Huh 9B; format: cell-based; details: Huh 9B replicon cells, 72 h, methylene blue, total cell area reduced by 50%
Experimental: (§1) HCV replicon cells Huh 9B (ReBlikon), containing the firefly luciferase-ubiquitin-neomycin phosphotransferase fusion protein and EMCV-IRES driven HCV polyprotein with cell culture adaptive mutations.
(§2) Replicon cells were trypsinised and counted. Cells were diluted to 100,000 cells/ml and 100 μl used to seed one opaque white 96-well plate (for the replicon assay) and one flat-bottomed clear plate (for the tox assay) for every five compounds to be tested for IC50. Wells G12 and H12 were left empty in the clear plate as the blank. Plates were then incubated at 37° C./5% CO2 for 24 h.
(§3) On the following day compound dilutions were prepared in medium at twice their desired final concentration in a clear round bottomed plate. All dilutions have a final DMSO concentration of 1%.
(§4) Controls and compounds were transferred from the dilution plates to the assay plates (containing the cells) at 100 μl/well in duplicate wells.
(§5) Exception: no compound was added to wells A1 and A2 of either plate and 100 μl of 1% DMSO was added to these instead. Plates were then incubated at 37° C./5% CO2 for 72 h.
The clear plate was stained with 100 μA 0.5% methylene blue in 50% ethanol at room temperature for 1 h, followed by solvation of the absorbed methylene blue in 100 μl per well of 1% lauroylsarcosine. Absorbance of the plate was measured on a microplate spectrophotometer (Molecular Devices) and the absorbance for each concentration of compound expressed as a proportion of the relative DMSO control. The TD50, the is concentration of drug required to reduce the total cell area by 50% relative to the DMSO controls, was calculated by plotting the absorbance at 620 nm after background substraction against drug concentration.

[2] = system: HCV replicon cells Huh 9B (genotype 1b); assay: 1b Replicon Assay (luciferase readout); format: cell-based; details: Hepatitis C virus, Huh 9B replicon cells, 72 h, luciferase activity
Experimental: as §1
Cells were cultured at 37° C./5% CO2 and split twice a week. G418 at 0.5 mg/ml was added to the culture medium but not the assay medium.
The culture medium consisted of DMEM with […] glucose and Glutamax (Gibco 61965-026) supplemented with 1× non-essential amino acids (Invitrogen 11140-035), 0.5 mg/ml G418 (Invitrogen 10131-027) and 10% Australian foetal calf serum (Invitrogen 10099-141).
as §2, §3, §4, §5
At the end of the incubation time, the cells in the white plate were washed in PBS (100 μL per well) and dried by tapping before addition of 204 per well of lysis buffer (25 mM tris-phosphate, 8 mM MgCl2, 1 mM DTT, 1% Triton X-100, 15% glycerol; pH to 7.8 using KH2PO4 prior to Triton X-100 and glycerol addition). Aliquots of substrate (23.5 mM beetle luciferin (Promega E1603), 26 mM ATP (Sigma O-2060) in […] Tris buffer pH 7.8) were stored at −80° C. Prior to use, required amount of luciferin was thawed and diluted 1:50 in luciferase assay buffer (20 mM Tricine (Sigma T-0377), 1.07 mM magnesium carbonate hydroxide (Sigma M-5671), 0.1 mM EDTA (Sigma E-5134), 2.67 mM MgSO4(BDH 101514Y), 33.3 mM dithiothreitol (Sigma 150460) pH 7.8).
After 5-60 min incubation in lysis buffer at room temperature, a plate was inserted into the luminometer and 100 μl luciferase assay reagent was added by the injector of the luminometer. The signal was measured using a 1 second delay followed by a 4 second measurement programme. The IC50, the concentration of the drug required for reducing the replicon level by 50% in relation to the untreated cell control value, was calculated from the plot of the percentage reduction of the luciferase activity vs. drug concentration.

[3] = system: HCV genotype 1a replicon cells Htat2ANeo; assay: 1a Replicon Assay (cell-based anti-NS5a ELISA); details: Hepatitis C virus, 72 h
Experimental: HCV genotype la replicon cells Htat2ANeo (University of Texas), containing neomycin phosphotransferase fusion protein and EMCV-IRES driven HCV polyprotein with cell culture adaptive mutations, and control cells, Et2AN.
Cells were cultured at 37° C./5% CO2 and split twice a week. G418 at 0.5 mg/ml and Blastocidin at 2 mg/ml were added to the culture medium but not the assay medium.
The culture medium consisted of DMEM with […] glucose and Glutamax (Gibco 61965-026) supplemented with 1× non-essential amino acids (Invitrogen 11140-035), 0.5 mg/ml G418 (Invitrogen 10131-027), 2 mg/ml Blastocidin (PAA) and 10% is Australian foetal calf serum (Invitrogen 10099-141).
Replicon and control cells were trypsinised and counted. Replicon cells were diluted to 90,000 cells/ml and 100 μl of this used to seed columns 2-4, […] and 10-12 of a black, clear bottom 96-well plate for every three compounds to be tested for IC50. Control cells were diluted to 60,000 cells/ml and 100 μl of this used to seed columns 1, 5 and 9 of the plate. Well H1 was left empty as the blank. Plates were then incubated at 37° C./5% CO2 for 24 h.
On the following day compound dilutions were prepared in medium at twice their desired final concentration in a clear round bottomed plate.
Controls and compounds were transferred from the dilution plate to the assay plates (containing the cells) at 100 μl/well in quadruplicate wells, one well containing control cells and 3 wells containing replicon cells.
Exception: no compound was added to row H of the plate and 100 μl of 1% DMSO was added to these instead. Plates were then incubated at 37° C. with 5% CO2 for 72 h. At the end of the incubation time, any reduction in cell viability was assayed and a cell-based enzyme linked immunosorbent assay (ELISA) was performed. The media/compound was removed from all wells and replaced with 100 μl/well serum-free media and 20 μl/well Cell Titre Blue (Promega G8081). Following incubation at 37° C./5% CO2 for 2 h plates were read on a microplate fluorometer (Molecular Devices) using an excitation of 570 nm and an emission of 590 nm The TD50, the concentration of drug required to reduce 50% of Cell Titre Blue relative to the DMSO controls, was calculated by plotting the fluorescence at 590 nm after substraction of background against drug concentration.
The media/Cell Titre Blue was removed and plates washed in PBS and gently tapped dry before addition of 50 μL per well of 75% acetone/25% methanol mixture for 3 minutes. The fixative was then discarded and wells were washed with PBS before addition of 100 μl/well of blocking solution (2% non-fat dry milk and 0.05% Tween-20 in 0.85% NaCl). Plates were then incubated at 37° C. in a shaking incubator for 60 min. Blocking solution was discarded and 50 μl of mouse anti-NS5a antibody (Virostat 1877) at 1:100 dilution in blocking buffer was added to all wells. Plates were incubated at 37° C. in a shaking incubator for 90 min Antibody was then discarded and plates were washed 4 times by immersion in 0.85% NaCl/0.05% Tween-20. After washing plates were tapped dry gently and 50 μl of secondary antibody (Dako P0260 Rabbit anti-mouse horseradish peroxidase) at 1:1000 dilution in blocking buffer was added to the wells. Plates were incubated at 37° C. in a shaking incubator for 60 min. Antibody was discarded and plates were washed 6 times by immersion in 0.85% NaCl/0.05% Tween-20 and once in PBS. Finally, 50 μl of substrate (SigmaFast ortho-phenylene diamine dihydrochloride (OPD)) was added per well and the colorimetric reaction was allowed to proceed in the dark for 5 to 15 minutes depending on the strength or the signal. The reaction was stopped by addition of 25 μl/well of 20% sulphuric acid. Plates were read on the SpectraMax microplate reader at 490 nm fixed wavelength. […]

[4] = read-out: pIC50 1b Replicon (converted)
[5] = read-out: pIC50 1a Replicon (converted)

SMILES	HCV TD50 Replicon [1]	IC50 ([2]; read-out: HCV IC50 1b Replicon)	IC50 [2, 4]	IC50 ([3]; read-out: HCV IC50 Elisa 1a)	IC50 [3, 5]
COC(=O)N[C@@H](C(=O)N1CCC[C@@H]1c1ncc(-c2ccc(-c3ccc(C(=O)Nc4ccc(CN5CCS(=O)(=O)CC5)cc4)cc3)cc2)[nH]1)C(C)C [Example 27, methyl N-[(1R)-1-[(2R)-2-[5-[4-[4-[[4-[(1,1-dioxo-1,4-thiazinan-4-yl)methyl]phenyl]carbamoyl]phenyl]phenyl]-1H-imidazol-2-yl]pyrrolidine-1-carbonyl]-2-methyl-propyl]carbamate]	>25 µM	15.3 nM	15.1 nM		
COC(=O)N[C@@H](C(=O)N1CCC[C@H]1c1ncc(-c2ccc(-c3ccc(C(=O)Nc4ccc(CN5CCS(=O)(=O)CC5)cc4)cc3)cc2)[nH]1)[C@H](C)O [Example 18, Methyl N-[(1R,2S)-1-[(2S)-2-[5-[4-[4-[[4-[(1,1-dioxo-1,4-thiazinan-4-yl)methyl]phenyl]carbamoyl]phenyl]phenyl]-1H-imidazol-2-yl]pyrrolidine-1-carbonyl]-2-hydroxy-propyl]carbamate]	>25 µM	126 nM	126 nM		
COC(=O)N[C@H](C(=O)N1CCCC[C@H]1c1ncc(-c2ccc(-c3ccc(C(=O)Nc4ccc(CN5CCS(=O)(=O)CC5)cc4)cc3)cc2)[nH]1)c1ccccc1 [Example 51, Methyl N-[(1S)-2-[(2S)-2-[5-[4-[4-[[4-[(1,1-dioxo-1,4-thiazinan-4-yl)methyl]phenyl]carbamoyl]phenyl]phenyl]-1H-imidazol-2-yl]-1-piperidyl]-2-oxo-1-phenyl-ethyl]carbamate]		0.79 nM	0.794 nM	95 nM	95.5 nM
CCN(CC)[C@@H](C(=O)N1CCC[C@H]1c1ncc(-c2cccc(-c3ccc(C(=O)Nc4ccc(CN5CCS(=O)(=O)CC5)cc4)cc3)c2)[nH]1)c1ccccc1 [Example 38, 4-[3-[2-[(2S)-1-[(2R)-2-(diethylamino)-2-phenyl-acetyl]pyrrolidin-2-yl]-1H-imidazol-5-yl]phenyl]-N-[4-[(1,1-dioxo-1,4-thiazinan-4-yl)methyl]phenyl]benzamide]		2.87 nM	2.88 nM	314 nM	316 nM
CN(C)[C@@H](C(=O)N1CCCC[C@H]1c1ncc(-c2ccc(-c3ccc(C(=O)Nc4ccc(CN5CCS(=O)(=O)CC5)cc4)cc3)cc2)[nH]1)c1ccccc1 [Example 53, 4-[4-[2-[(2S)-1-[(2R)-2-(dimethylamino)-2-phenyl-acetyl]-2-piperidyl]-1H-imidazol-5-yl]phenyl]-N-[4-[(1,1-dioxo-1,4-thiazinan-4-yl)methyl]phenyl]benzamide]		0.82 nM	0.813 nM	324 nM	324 nM
CC(C)(C)OC(=O)N[C@H](C(=O)N1CCCC[C@H]1c1ncc(-c2ccc(-c3ccc(C(=O)Nc4ccc(CN5CCS(=O)(=O)CC5)cc4)cc3)cc2)[nH]1)c1ccccc1 [Example 52, tert-Butyl N-[(1S)-2-[(2S)-2-[5-[4-[4-[[4-[(1,1-dioxo-1,4-thiazinan-4-yl)methyl]phenyl]carbamoyl]phenyl]phenyl]-1H-imidazol-2-yl]-1-piperidyl]-2-oxo-1-phenyl-ethyl]carbamate]		0.41 nM	0.407 nM	185 nM	186 nM
CCCS(=O)(=O)N1CCN(Cc2ccc(NC(=O)c3ccc(-c4ccc(-c5cnc([C@@H]6CCCN6C(=O)[C@H](NC(=O)OC)c6ccccc6)[nH]5)cc4)cc3)cc2)CC1 [Example 43, Methyl N-[(1R)-2-oxo-1-phenyl-2-[(2S)-2-[5-[4-[4-[[4-[(4-propylsulfonylpiperazin-1-yl)methyl]phenyl]carbamoyl]phenyl]phenyl]-1H-imidazol-2-yl]pyrrolidin-1-yl]ethyl]carbamate]		0.05 nM	0.055 nM	77.7 nM	77.6 nM
CCCS(=O)(=O)N1CCN(Cc2ccc(NC(=O)c3ccc(-c4ccc(-c5cnc([C@@H]6CCCN6C(=O)[C@@H](NC(=O)OC)c6ccccc6)[nH]5)cc4)cc3)cc2)CC1 [Example 42, Methyl N-[(1S)-2-oxo-1-phenyl-2-[(2S)-2-[5-[4-[4-[[4-[(4-propylsulfonylpiperazin-1-yl)methyl]phenyl]carbamoyl]phenyl]phenyl]-1H-imidazol-2-yl]pyrrolidin-1-yl]ethyl]carbamate]		0.05 nM	0.0537 nM	97.4 nM	97.7 nM
COC(=O)N[C@H](CO)C(=O)N1CCC[C@H]1c1ncc(-c2ccc(-c3ccc(C(=O)Nc4ccc(CN5CCS(=O)(=O)CC5)cc4)cc3)cc2)[nH]1 [Example 19, Methyl N-[(1R)-2-[(2S)-2-[5-[4-[4-[[4-[(1,1-dioxo-1,4-thiazinan-4-yl)methyl]phenyl]carbamoyl]phenyl]phenyl]-1H-imidazol-2-yl]pyrrolidin-1-yl]-1-(hydroxymethyl)-2-oxo-ethyl]carbamate]	21.4 µM	43.2 nM	43.7 nM		
